What was measured:
Assay type in all cases: cell-based
TNF-α = TNF-α production inhibition in macrophages derived from mouse abdomen (IFN-γ/SAC stimulation, ELISA); details: Macrophage; mouse (Balb/c) abdominal macrophages, 100 ng/mL mouse IFN-γ + 0.05% SAC, overnight; TFA salts tested where prepared as such; read-out: TNF-α-Inhibitory Activity IC50
Protocol: One milliliter each of a 3% (w/v) thioglycolate solution was intraperitoneally administered to mice (female Balb/c mice), the abdominal cells of each mouse were recovered after 5 or 6 days from the administration of the thioglycolate solution and the adhesive cells were collected and used in the exaluation procedures. To a culture medium containing such adhesive cells, there were added 100 ng/mL of mouse interferon-γ and a 0.05% (v/v) liquid containing killed cells derived from Staphylococcus aureus Cowan I strain (SAC) and a candidate compound and then the mixture was cultivated overnight. After the completion of the cultivation, the survival ratios were determined, there were quantitatively determined the quantities of IL-12p70 (the complex of IL-12p35 and p40) and IL-12p40 or TNF-α according to the ELISA assays while making use of the recovered supernatant of the culture medium and the 50% production-inhibitory concentration (IC50) was calculated for each case (see Table 1 and Tables 1-9 for IL-12p70 and TNF-α and Tables 1 to 10 for IL-12p40).

[1] = tested on: IL-12p70 (the complex of IL-12p35 and p40); test: IL-12p70 production inhibition in whole blood of mouse (IFN-γ/SAC stimulation, ELISA); details: mouse (Balb/c) whole blood, EDTA, 100 ng/mL mouse IFN-γ + 1.25% SAC, overnight; TFA salts tested where prepared as such
Protocol: The blood was recovered from the mice (female Balb/c mice) (containing added EDTA) and it was used for the evaluation. To a cell culture medium, there were added 100 ng/mL of mouse interferon-γ, 1.25% (v/v) of a liquid containing killed cells derived from Staphylococcus aureus Cowan I strain (SAC) and a candidate compound, the resulting mixture was diluted to a volume equivalent to the blood and then the diluted medium was cultivated overnight. After the completion of the cultivation, the amount of IL-12p70 (the complex of IL-12p35 and p40) was quantitatively determined according to the ELISA assays while making use of the recovered supernatant of the culture medium and the 50% production-inhibitory concentrations (IC50) were calculated for Compounds 38, 80, 82, 83, 84, 85, 87, 90 and 91. (see Table 3).

[2] = tested on: IL-12p70 (the complex of IL-12p35 and p40); test: IL-12p70 production inhibition in macrophages derived from mouse abdomen (IFN-γ/SAC stimulation, ELISA); details: Macrophage; mouse (Balb/c) abdominal macrophages, 100 ng/mL mouse IFN-γ + 0.05% SAC, overnight; TFA salts tested where prepared as such; read-out: IL-12p70-Inhibitory Activity IC50
In short: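 Thioglycolate-elicited adherent peritoneal macrophages from female Balb/c mice were collected 5–6 days after dosing. Cells were stimulated overnight with 100 ng/mL mouse IFN-γ plus 0.05% (v/v) killed S. aureus Cowan I, with compound present. IL-12p70, IL-12p40 and TNF-α in supernatants were measured by ELISA and IC50s derived, with cell survival also checked.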

Row | IC50 (TNF-α) [nM] | IC50 [1] [nM] | IC50 [2] [nM] | SMILES
1 | > 10000 | 2700 | 11 | Cc1cccc(/C=N/Nc2cc(N3CCOCC3)n3nc(-c4cccnc4)cc3n2)c1 [Compound 38, N-(3-methyl-benzylidene)-N′-(7-morpholin-4-yl-2-pyridin-3-yl-pyrazolo[1,5-a]pyrimidin-5-yl)-hydrazine]
2 | – | 4600 | 48 | C(=N\Nc1cc(N2CCOCC2)n2nc(-c3ccncc3)cc2n1)/c1ccsc1 [Compound 91, N-(7-morpholin-4-yl-2-pyridin-4-yl-pyrazolo[1,5-a]-pyrimidin-5-yl)-N′-thiophen-3-yl-methylidene-hydrazine]
3 | – | 810 | 28 | C(=N\Nc1cc(N2CCOCC2)n2nc(-c3ccncc3)cc2n1)/c1coc2ccccc12 [Compound 95]
4 | > 10000 | 4900 | 160 | Cc1cc2nc(N/N=C/c3c[nH]c4ccccc34)cc(N3CCOCC3)n2n1 [Compound 80, N-(1H-indol-3-yl-methylidene)-N′-(2-methyl-7-morpholin-4-yl-pyrazolo[1,5-a]pyrimidin-5-yl)-hydrazine]
5 | – | 2500 | 100 | C(=N\Nc1cc(N2CCOCC2)n2nc(-c3ccncc3)cc2n1)/c1ccc2[nH]ccc2c1 [Compound 104]
6 | – | 3800 | 49 | CCc1cccc(/C=N/Nc2cc(N3CCOCC3)n3nc(-c4cnccn4)cc3n2)c1 [Compound 116, N-(3-ethyl-benzylidene)-N-(7-morpholin-4-yl-2-pyrazin-2-yl-pyrazolo[1,5-a]pyrimidin-5-yl)-hydrazine]
7 | > 10000 | – | 170 | Nc1cccc(/C=N/Nc2cc(N3CCOCC3)n3nc(-c4ccccc4)cc3n2)c1 [Compound 140, N-(3-amino-benzylidene)-N-(7-morpholin-4-yl-2-phenyl-pyrazolo[1,5-a]pyrimidin-5-yl)-hydrazine]
8 | – | 3200 | 8.3 | C(=N\Nc1cc(N2CCOCC2)n2nc(-c3ccnnc3)cc2n1)/c1c[nH]c2ccccc12 [Compound 97, N-(1H-indol-3-yl-methylidene)-N-(7-morpholin-4-yl-2-pyridazin-4-yl-pyrazolo[1,5-a]pyrimidin-5-yl)-hydrazine]
9 | > 10000 | – | 34 | Cc1cccc(/C=N/Nc2cc(N3CCOCC3)n3nc(-c4ccc(Cl)cc4)cc3n2)c1 [Compound 13, N-{2-(4-chlorophenyl)-7-morpholin-4-yl-pyrazolo[1,5-a]-pyrimidin-5-yl}-N′-(3-methyl-benzylidene)-hydrazine]
10 | > 10000 | – | 23 | Cc1ccc(-c2cc3nc(N/N=C/c4c[nH]c5ccccc45)cc(N4CCOCC4)n3n2)cc1 [Compound 4, N-(1H-indol-3-yl-methylidene)-N′-{2-(4-methylphenyl)-7-morpholin-4-yl-pyrazolo[1,5-a]pyrimidin-5-yl}-hydrazine]
11 | > 10000 | – | 113 | C(=N\Nc1cc(N2CCOCC2)n2nc(-c3ccccc3)cc2n1)/c1ccccc1 [Compound 7, N-benzylidene-N′-(7-morpholin-4-yl-2-phenyl-pyrazolo-[1,5-a]pyrimidin-5-yl)-hydrazine]
12 | > 10000 | – | 18 | Cc1cccc(/C=N/Nc2cc(N3CCOCC3)n3nc(-c4ccc(Br)cc4)cc3n2)c1 [Compound 16, N-{2-(4-bromo-phenyl)-7-morpholin-4-yl-pyrazolo[1,5-a]-pyrimidin-5-yl}-N′-(3-methyl-benzylidene)-hydrazine]
13 | – | 640 | 29 | CCc1cccc(/C=N/Nc2cc(N3CCOCC3)n3nc(-c4ccncc4)cc3n2)c1 [Compound 118, N-(3-ethyl-benzylidene)-N-(7-morpholin-4-yl-2-pyridin-4-yl-pyrazolo[1,5-a]pyrimidin-5-yl)-hydrazine]
14 | > 10000 | 2300 | 3.2 | C(=N\Nc1cc(N2CCOCC2)n2nc(-c3ccncc3)cc2n1)/c1c[nH]c2ccccc12 [Compound 84, N-(1H-indol-3-yl-methylidene)-N′-(7-morpholin-4-yl-2-pyridin-4-yl-pyrazolo[1,5-a]pyrimidin-5-yl)-hydrazine]
15 | > 10000 | – | 4 | Cc1cccc(/C=N/Nc2cc(N3CCOCC3)n3nc(-c4ccc(N5CCOCC5)cc4)cc3n2)c1 [Compound 17, N-(3-methyl-benzylidene)-N′-{7-morpholin-4-yl-2-(4-morpholin-4-yl-phenyl)-pyrazolo[1,5-a]pyrimidin-5-yl}-hydrazine]
16 | – | 760 | 110 | C(=N\Nc1cc(N2CCOCC2)n2nc(-c3ccncc3)cc2n1)/c1c[nH]c2ncccc12 [Compound 126, N-(7-morpholin-4-yl-2-pyridin-4-yl-pyrazolo[1,5-a]-pyrimidin-5-yl)-N′-(1H-pyrrolo[2,3-b]pyridin-3-yl-methylidene)-hydrazine]

The remaining lines, values behind:

Row | SMILES | IC50 (TNF-α) [nM] | IC50 [1] [nM] | IC50 [2] [nM]
17 | C(=N\Nc1cc(N2CCOCC2)n2nc(N3CCOCC3)cc2n1)/c1c[nH]c2ccccc12 [Compound 128, N-(1H-indol-3-yl-methylidene)-N-(2,7-di-morpholin-4-yl-pyrazolo[1,5-a]pyrimidin-5-yl)-hydrazine] | – | 4600 | 140
18 | Cc1cccc(/C=N/Nc2cc(N3CC4COCC4C3)n3nc(-c4ccncc4)cc3n2)c1 (stereo not drawn) [Compound 123, N-(3-methyl-benzylidene)-N′-[2-pyridin-4-yl-7-(tetrahydro-furo[3,4-c]pyrrol-5-yl)-pyrazolo[1,5-a]pyrimidin-5-yl]-hydrazine] | – | 440 | 300
19 | Cc1cccc(/C=N/Nc2cc(N3CCOCC3)n3nc(-c4cnccn4)cc3n2)c1 [Compound 90, N-(3-methyl-benzylidene)-N′-(7-morpholin-4-yl-2-pyrazin-2-yl-pyrazolo[1,5-a]pyrimidin-5-yl)-hydrazine] | – | 2500 | 8.3
20 | C(=N\Nc1cc(N2CCOCC2)n2nc(-c3ccncc3)cc2n1)/c1ccnc2ccccc12 [Compound 122, N-(7-morpholin-4-yl-2-pyridin-4-yl-pyrazolo[1,5-a]-pyrimidin-5-yl)-N′-quinolin-4-yl-methylidene-hydrazine] | – | 2400 | 5.6
21 | C(=N\Nc1cc(N2CCOCC2)n2nc(-c3ccncc3)cc2n1)/c1cc2ccccc2s1 [Compound 108, N-benzo[b]thiophen-2-yl-methylidene-N′-(7-morpholin-4-yl-2-pyridin-4-yl-pyrazolo[1,5-a]pyrimidin-5-yl)-hydrazine] | – | 3700 | 110
22 | C(=N\Nc1cc(N2CCOCC2)n2nc(-c3ccncc3)cc2n1)/c1cc2ccccc2o1 [Compound 96] | – | 1100 | 50
23 | Cc1cccc(/C=N/Nc2cc(N3CCOCC3)n3nc(-c4ccnnc4)cc3n2)c1 [Compound 94, N-(3-methyl-benzylidene)-N-(7-morpholin-4-yl-2-pyridazin-4-yl-pyrazolo[1,5-a]pyrimidin-5-yl)-hydrazine] | – | 1000 | 18
24 | C(=N\Nc1cc(N2CCOCC2)n2ncc(-c3ccccn3)c2n1)/c1c[nH]c2ccccc12 [Compound 88, N-(1H-indol-3-yl-methylidene)-N′-(7-morpholin-4-yl-3-pyridin-2-yl-pyrazolo[1,5-a]pyrimidin-5-yl)-hydrazine] | > 10000 | – | 420
25 | Cc1cccc(/C=N/Nc2cc(N3CCOCC3)n3nc(-c4cccs4)cc3n2)c1 [Compound 18, N-(3-methyl-benzylidene)-N′-(7-morpholin-4-yl-2-thiophen-2-yl-pyrazolo[1,5-a]pyrimidin-5-yl)-hydrazine] | > 10000 | – | 11
26 | Cc1cccc(/C=N/Nc2cc(N3CCOCC3)n3nc(-c4ccc(N5CCOCC5)nc4)cc3n2)c1 [Compound 85, N-(3-methyl-benzylidene)-N′-[7-morpholin-4-yl-2-(6-morpholin-4-yl-pyridin-3-yl)-pyrazolo[1,5-a]pyrimidin-5-yl]-hydrazine] | > 10000 | 4200 | 3.2
27 | Cc1cccc(/C=N/Nc2cc(N3CCOCC3)n3ncc(-c4ccccn4)c3n2)c1 [Compound 87, N-(3-methyl-benzylidene)-N′-(7-morpholin-4-yl-3-pyridin-2-yl-pyrazolo[1,5-a]pyrimidin-5-yl)-hydrazine] | – | 2400 | –
